Source: patent US10787462B2, “Heterocyclic compound” (TAKEDA PHARMACEUTICAL COMPANY LIMITED, priority 2015, dated 2020)
Where two headings read alike, the source gives them in different places.

Biological target: T1, human RIPK1 (1-375) (Homo sapiens, UniProt Q13546)
T1 construct: human RIPK1 (1-375) gene; GST; made in house; host or cells: Sf-9 insect cells
T1 sequence (Q13546 1-375): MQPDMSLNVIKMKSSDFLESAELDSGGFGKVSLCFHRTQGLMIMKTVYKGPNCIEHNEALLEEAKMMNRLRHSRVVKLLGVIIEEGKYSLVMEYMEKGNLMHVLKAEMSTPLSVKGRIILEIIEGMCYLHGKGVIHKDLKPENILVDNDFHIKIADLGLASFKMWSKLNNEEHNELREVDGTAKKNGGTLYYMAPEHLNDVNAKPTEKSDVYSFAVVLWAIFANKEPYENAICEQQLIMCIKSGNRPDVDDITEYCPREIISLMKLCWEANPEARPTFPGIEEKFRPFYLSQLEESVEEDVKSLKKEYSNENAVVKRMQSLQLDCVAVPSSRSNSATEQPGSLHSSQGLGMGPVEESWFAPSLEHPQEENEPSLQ
Assay: Human RIPK1 enzyme inhibitory effect (ADP-Glo Kinase Assay)
Type: biochemical
Conditions: for human RIPK1 enzyme inhibitory effect at 10 μM (% inhibition): 10 μM test compound
Description: Experimental Example 1: Human RIPK1 Enzyme Inhibitory Effect
Enzyme was prepared by transducing human RIPK1 (1-375) gene to Sf-9 insect cells, and purifying using GST affinity column, and enzyme activity evaluation was performed using the enzyme. The enzyme was used after preservation at −70° C. The RIPK1 enzyme inhibitory activity of the test compound was measured using ADP-Glo™ Kinase Assay (Promega) according the following experiment methods. The test compound diluted with assay buffer (25 mM HEPES (pH 7.5), 10 mM MgCl2, 0.01% Tween-20, 2 mM DTT) was added to 384 well plate by each 2 μL. Next, RIPK1 enzyme solution diluted with the assay buffer was added thereto by each 2 μL, and the mixture was incubated at room temperature for 20 min. After the incubation, 0.6 mM ATP solution was added thereto by each 2 μL to initiate an enzyme reaction. The mixture was incubated at room temperature for 120 min, and ADP-Glo solution prepared according to Promega protocol was added to the 384 well plate by each 3 μL, and the reaction was performed at room temperature for 40 min. Then, Kinase-Detection solution was added to the 384 well plate by each 6 μL, and the reaction was performed at room temperature for 40 min. After the reaction, the luminescence intensity was measured by plate reader Envision (PerkinElmer).

[1] = read-out: human RIPK1 enzyme inhibitory effect at 10 μM (% inhibition), 10 μM test compound, well without enzyme = 100% inhibition
[2] = well without enzyme = 100% inhibition

inhibition at 10 µM [1] [%] | Structure (SMILES) | other results
100 | CN1C(=O)[C@@H](N2CCc3cn(Cc4c(F)cccc4F)nc3C2=O)COc2cc(Br)ccc21 [Example 110, (3S)-8-bromo-3-(2-(2,6-difluorobenzyl)-7-oxo-2,4,5,7-tetrahydro-6H-pyrazolo[3,4-c]pyridin-6-yl)-5-methyl-2,3-dihydro-1,5-benzoxazepin-4(5H)-one] | 
101 | CNC(=O)c1ccc2c(c1)OC[C@H](N1CCc3cn(Cc4ccccc4F)nc3C1=O)C(=O)N2C [Example 117, (3S)-3-(2-(2-fluorobenzyl)-7-oxo-2,4,5,7-tetrahydro-6H-pyrazolo[3,4-c]pyridin-6-yl)-N,5-dimethyl-4-oxo-2,3,4,5-tetrahydro-1,5-benzoxazepine-8-carboxamide] | 
100 | CN1C(=O)[C@@H](N2CCc3c(nn(Cc4ccccc4)c3C3CC3)C2=O)COc2ccccc21 [Example 159, (3S)-3-(2-benzyl-3-cyclopropyl-7-oxo-2,4,5,7-tetrahydro-6H-pyrazolo[3,4-c]pyridin-6-yl)-5-methyl-2,3-dihydro-1,5-benzoxazepin-4(5H)-one] | 
88 | CN1C(=O)[C@@H](N2CCc3cn(Cc4cccc(S(C)(=O)=O)c4)nc3C2=O)COc2ccccc21 [Example 166, (3S)-5-methyl-3-(2-(3-(methylsulfonyl)benzyl)-7-oxo-2,4,5,7-tetrahydro-6H-pyrazolo[3,4-c]pyridin-6-yl)-2,3-dihydro-1,5-benzoxazepin-4(5H)-one] | 
80 | CN1C(=O)[C@@H](N2CCc3c(nn(Cc4ccccc4)c3-c3cnn(C)c3)C2=O)COc2ccccc21 [Example 169, (3S)-3-(2-benzyl-3-(1-methyl-1H-pyrazol-4-yl)-7-oxo-2,4,5,7-tetrahydro-6H-pyrazolo[3,4-c]pyridin-6-yl)-5-methyl-2,3-dihydro-1,5-benzoxazepin-4(5H)-one] | 
97 | COc1cccc(Cn2cc3c(n2)C(=O)N([C@H]2COc4ccccc4N(C)C2=O)CC3)c1 [Example 155, (3S)-3-(2-(3-methoxybenzyl)-7-oxo-2,4,5,7-tetrahydro-6H-pyrazolo[3,4-c]pyridin-6-yl)-5-methyl-2,3-dihydro-1,5-benzoxazepin-4(5H)-one] | 
101 | CN1C(=O)[C@@H](N2CCc3c(nn(Cc4ccccc4)c3Cl)C2=O)COc2ccc(C#N)cc21 [Example 145, (3S)-3-(2-benzyl-3-chloro-7-oxo-2,4,5,7-tetrahydro-6H-pyrazolo[3,4-c]pyridin-6-yl)-5-methyl-4-oxo-2,3,4,5-tetrahydro-1,5-benzoxazepine-7-carbonitrile] | 
78 | CN1C(=O)[C@@H](N2CCc3cn(CC4(C)COC4)nc3C2=O)COc2ccccc21 [Example 154, (3S)-5-methyl-3-(2-((3-methyloxetan-3-yl)methyl)-7-oxo-2,4,5,7-tetrahydro-6H-pyrazolo[3,4-c]pyridin-6-yl)-2,3-dihydro-1,5-benzoxazepin-4(5H)-one] | 

Second part, the compound before the results:

Structure (SMILES) | inhibition at 10 µM [1] [%] | other results
Cc1ccccc1Cn1cc2c(n1)C(=O)N([C@H]1COc3ccccc3N(C)C1=O)CC2 [Example 22, (3S)-5-methyl-3-(2-(2-methylbenzyl)-7-oxo-2,4,5,7-tetrahydro-6 H-pyrazolo[3,4-c]pyridin-6-yl)-2,3-dihydro-1,5-benzoxazepin-4(5H)-one] | 100 | 
CN(C)C(=O)c1ccc2c(c1)N(C)C(=O)[C@@H](N1CCc3c(nn(Cc4ccccc4)c3Cl)C1=O)CO2 [Example 90, (3S)-3-(2-benzyl-3-chloro-7-oxo-2,4,5,7-tetrahydro-6H-pyrazolo[3,4-c]pyridin-6-yl)-N,N,5-trimethyl-4-oxo-2,3,4,5-tetrahydro-1,5-benzoxazepine-7-carboxamide] | 101 | 
CN1C(=O)C(N2CCc3c(nn(Cc4ccccc4)c3Cl)C2=O)CCc2ccncc21 (stereo not drawn) [Example 95, 3-(2-benzyl-3-chloro-7-oxo-2,4,5,7-tetrahydro-6H-pyrazolo[3,4-c]pyridin-6-yl)-1-methyl-1,3,4,5-tetrahydro-2H-pyrido[3,4-b]azepin-2-one] |  | human RIPK1 enzyme inhibitory effect at 10 μM (% inhibition) [2]: 101%
CN1C(=O)[C@@H](N2CCCn3nc(Cc4ccccc4)nc3C2=O)COc2ccccc21 [Example 2, (3S)-3-(2-benzyl-9-oxo-6,7-dihydro-5H-[1,2,4]triazolo[1,5-a][1,4]diazepin-8(9H)-yl)-5-methyl-2,3-dihydro-1,5-benzoxazepin-4(5H)-one] | 91 | 
CN1C(=O)C(N2CCc3c(nn(Cc4ccccc4)c3Cl)C2=O)CCc2ncccc21 (stereo not drawn) [Example 67, 7-(2-benzyl-3-chloro-7-oxo-2,4,5,7-tetrahydro-6H-pyrazolo[3,4-c]pyridin-6-yl)-5-methyl-5,7,8,9-tetrahydro-6H-pyrido[3,2-b]azepin-6-one (optical isomer)] |  | human RIPK1 enzyme inhibitory effect at 10 μM (% inhibition) [2]: 73%
CN1C(=O)[C@@H](N2CCc3c(nn(Cc4ccccc4)c3Cl)C2=O)COc2cc(C3COC3)ccc21 [Example 59, (3S)-3-(2-benzyl-3-chloro-7-oxo-2,4,5,7-tetrahydro-6H-pyrazolo[3,4-c]pyridin-6-yl)-5-methyl-8-(oxetan-3-yl)-2,3-dihydro-1,5-benzoxazepin-4(5H)-one] | 97 | 
CN1C(=O)[C@@H](N2CCc3cn(Cc4cccc(Cl)c4)nc3C2=O)COc2ccccc21 [Example 26, (3S)-3-(2-(3-chlorobenzyl)-7-oxo-2,4,5,7-tetrahydro-6H-pyrazolo[3,4-c]pyridin-6-yl)-5-methyl-2,3-dihydro-1,5-benzoxazepin-4(5H)-one] | 100 | 
O=C1Nc2ccccc2CCC1N1Cc2sc(Cc3ccccc3)nc2C1=O (stereo not drawn) [Example 15, 3-(2-benzyl-4-oxo-4,6-dihydro-5H-pyrrolo[3,4-d][1,3]thiazol-5-yl)-1,3,4,5-tetrahydro-2H-1-benzazepin-2-one] | 91 | 
CN1C(=O)[C@@H](N2CCc3cn(Cc4ccccc4)nc3C2=O)CS(=O)(=O)c2ccccc21 [Example 69, (3R)-3-(2-benzyl-7-oxo-2,4,5,7-tetrahydro-6H-pyrazolo[3,4-c]pyridin-6-yl)-5-methyl-2,3-dihydro-1,5-benzthiazepin-4(5H)-one 1,1-dioxide] | 99 | 
O=C1Nc2ccc(Br)cc2OC[C@@H]1N1CCc2c(nn(Cc3ccccc3)c2Cl)C1=O [Example 82, (3S)-3-(2-benzyl-3-chloro-7-oxo-2,4,5,7-tetrahydro-6H-pyrazolo[3,4-c]pyridin-6-yl)-8-bromo-2,3-dihydro-1,5-benzoxazepin-4(5H)-one] | 99 | 
N#Cc1ccc2c(c1)OC[C@H](N1CCc3c(nn(Cc4ccccc4)c3Cl)C1=O)C(=O)N2 [Example 83, (3S)-3-(2-benzyl-3-chloro-7-oxo-2,4,5,7-tetrahydro-6H-pyrazolo[3,4-c]pyridin-6-yl)-4-oxo-2,3,4,5-tetrahydro-1,5-benzoxazepine-8-carbonitrile] | 92 | 
CN1C(=O)[C@@H](N2CCc3c(nn(Cc4ccccc4)c3C(N)=O)C2=O)COc2ccccc21 [Example 50, 2-benzyl-6-((3S)-5-methyl-4-oxo-2,3,4,5-tetrahydro-1,5-benzoxazepin-3-yl)-7-oxo-4,5,6,7-tetrahydro-2H-pyrazolo[3,4-c]pyridine-3-carboxamide] |  | inhibition at 10 µM (read-out: human RIPK1 enzyme inhibitory effect at 10 μM (% inhibition)): 99%
CN1C(=O)C(N2CCc3c(nn(Cc4ccccc4F)c3Cl)C2=O)CCc2cnccc21 (stereo not drawn) [Example 96, 3-(3-chloro-2-(2-fluorobenzyl)-7-oxo-2,4,5,7-tetrahydro-6H-pyrazolo[3,4-c]pyridin-6-yl)-1-methyl-1,3,4,5-tetrahydro-2H-pyrido[4,3-b]azepin-2-one] |  | human RIPK1 enzyme inhibitory effect at 10 μM (% inhibition) [2]: 96%
CN1C(=O)C(N2CCc3c(nn(Cc4ccccc4)c3Cl)C2=O)CCc2cn(C)nc21 (stereo not drawn) [Example 113, 6-(2-benzyl-3-chloro-7-oxo-2,4,5,7-tetrahydro-6H-pyrazolo[3,4-c]pyridin-6-yl)-2,8-dimethyl-2,5,6,8-tetrahydropyrazolo[3,4-b]azepin-7(4H)-one] |  | human RIPK1 enzyme inhibitory effect at 10 μM (% inhibition) [2]: 61%
CN1C(=O)C(N2CCc3c(nn(Cc4ccccc4F)c3Cl)C2=O)CCc2ccncc21 (stereo not drawn) [Example 97, 3-(3-chloro-2-(2-fluorobenzyl)-7-oxo-2,4,5,7-tetrahydro-6H-pyrazolo[3,4-c]pyridin-6-yl)-1-methyl-1,3,4,5-tetrahydro-2H-pyrido[3,4-b]azepin-2-one] |  | human RIPK1 enzyme inhibitory effect at 10 μM (% inhibition) [2]: 98%
CN1C(=O)[C@@H](N2CCc3c(nc(Cc4ccccc4)n3C)C2=O)COc2ccccc21 [Example 56, (3S)-3-(2-benzyl-1-methyl-4-oxo-1,4,6,7-tetrahydro-5H-imidazo[4,5-c]pyridin-5-yl)-5-methyl-2,3-dihydro-1,5-benzoxazepin-4(5H)-one] | 96 | 
